“And” between values parts separate entries of the source, which are not always exact repeats. Equal values may be shown once.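 Values below derive from 48-hour exposures of cells grown in 96-well plates, with endpoints linearly interpolated between the two concentrations bracketing the appropriate inhibition level. The concentration for 50% growth inhibition is given as GI50.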 The source made the active and inactive calls. Rule as the data show it: active = GI50 up to about 1.1 µM and inactive = higher.
Columns and labels:
Experiment in all cases: DTP human tumour cell line panel, 48 h
[1] = tested on: MCF7
[2] = tested on: EKVX
[3] = tested on: U-251
[4] = tested on: SNB-19
[5] = tested on: UACC-62
[6] = tested on: SR
[7] = tested on: RXF 393
[8] = tested on: OVCAR-3
[9] = tested on: BT-549
[10] = tested on: M14
[11] = tested on: SW-620
[12] = tested on: 786-0
[13] = tested on: IGROV-1
[14] = tested on: A549
[15] = tested on: NCI-H522
[16] = tested on: COLO 205
[17] = tested on: TK-10
[18] = tested on: ACHN
[19] = tested on: SN12C
[20] = tested on: DU-145
[21] = tested on: OVCAR-8
[22] = tested on: HCT-116
[23] = tested on: SF-295
[24] = tested on: HCT-15
[25] = tested on: SK-MEL-5
[26] = tested on: MOLT-4
[27] = tested on: CCRF-CEM
[28] = tested on: SNB-75
[29] = tested on: KM12
[30] = tested on: MDA-N
[31] = tested on: RPMI-8226
[32] = tested on: SF-268
[33] = tested on: SK-MEL-28
[34] = tested on: NCI-H226
[35] = tested on: HT-29
[36] = tested on: HOP-62
[37] = tested on: MDA-MB-435
[38] = tested on: HL-60
[39] = tested on: UACC-257
[40] = tested on: MDA-MB-231
[41] = tested on: NCI-H460
[42] = tested on: UO-31
[43] = tested on: LOX IMVI
[44] = tested on: OVCAR-5
[45] = tested on: SK-MEL-2
[46] = tested on: NCI-H23
[47] = tested on: Malme-3M
[48] = tested on: PC-3
[49] = tested on: Hs-578T
[50] = tested on: SF-539
[51] = tested on: NCI/ADR-RES
[52] = tested on: K562
[53] = tested on: HCC 2998
[54] = tested on: HOP-92
[55] = tested on: A498
[56] = tested on: CAKI-1
[57] = tested on: OVCAR-4

CC(=O)C1(C(=O)C(=[N+]=[N-])S(=O)(=O)c2ccccc2)CC1
GI50 [1]: > 100 µM (inactive) | GI50 [2]: > 100 µM (inactive) | GI50 [3]: > 100 µM (inactive) | GI50 [4]: > 100 µM (inactive) | GI50 [5]: > 100 µM (inactive) | GI50 [6]: > 100 µM (inactive) | GI50 [7]: > 100 µM (inactive) | GI50 [8]: > 100 µM (inactive) | GI50 [9]: > 100 µM (inactive) | GI50 [10]: > 100 µM (inactive) | GI50 [11]: > 100 µM (inactive) | GI50 [12]: > 100 µM (inactive) | GI50 [13]: > 100 µM (inactive) | GI50 [14]: > 100 µM (inactive) | GI50 [15]: > 100 µM (inactive) | GI50 [16]: > 100 µM (inactive) | GI50 [17]: > 100 µM (inactive) | GI50 [18]: > 100 µM (inactive) | GI50 [19]: > 100 µM (inactive) | GI50 [20]: > 100 µM (inactive) | GI50 [21]: > 100 µM (inactive) | GI50 [22]: > 100 µM (inactive) | GI50 [23]: > 100 µM (inactive) | GI50 [24]: > 100 µM | GI50 [25]: > 100 µM (inactive) | GI50 [26]: 83.8 µM (inactive) | GI50 [27]: 40.2 µM (inactive) | GI50 [28]: > 100 µM (inactive) | GI50 [29]: > 100 µM (inactive) | GI50 [30]: > 100 µM (inactive) | GI50 [31]: 83.2 µM (inactive) | GI50 [32]: > 100 µM (inactive) | GI50 [33]: > 100 µM (inactive) | GI50 [34]: > 100 µM (inactive) | GI50 [35]: > 100 µM (inactive) | GI50 [36]: > 100 µM (inactive) | GI50 [37]: > 100 µM (inactive) | GI50 [38]: 74.1 µM (inactive) | GI50 [39]: > 100 µM (inactive) | GI50 [40]: > 100 µM (inactive) | GI50 [41]: > 100 µM (inactive) | GI50 [42]: > 100 µM (inactive) | GI50 [43]: > 100 µM (inactive) | GI50 [44]: > 100 µM (inactive) | GI50 [45]: > 100 µM (inactive) | GI50 [46]: > 100 µM (inactive) | GI50 [47]: > 100 µM (inactive) | GI50 [48]: > 100 µM (inactive) | GI50 [49]: > 100 µM (inactive) | GI50 [50]: > 100 µM (inactive) | GI50 [51]: > 100 µM (inactive) | GI50 [52]: 80.4 µM (inactive) | GI50 [53]: > 100 µM (inactive)

Cc1cn(C2CC(N(O)Cc3ccccc3)C(CO[Si](C)(C)C(C)(C)C)O2)c(=O)[nH]c1=O (configuration not stated)
GI50 [1]: 19.6 µM (inactive) and 30.9 µM (inactive) | GI50 [2]: 25.4 µM (inactive) and 17.8 µM (inactive) | GI50 [3]: 15.1 µM (inactive) and 19.6 µM (inactive) | GI50 [4]: 18.6 µM (inactive) and 34.9 µM (inactive) | GI50 [5]: 12.2 µM (inactive) and 16.4 µM (inactive) | GI50 [6]: 31.6 µM (inactive) | GI50 [7]: 13.6 µM (inactive) | GI50 [8]: 17.7 µM (inactive) | GI50 [9]: 16.4 µM (inactive) and 16.3 µM (inactive) | GI50 [10]: 16.6 µM (inactive) and 19.5 µM (inactive) | GI50 [11]: 19.4 µM (inactive) and 25.8 µM (inactive) | GI50 [12]: 17.4 µM (inactive) and 15.6 µM (inactive) | GI50 [13]: 15.7 µM (inactive) and 25.5 µM (inactive) | GI50 [15]: 18 µM (inactive) | GI50 [16]: 18.5 µM (inactive) and 20.9 µM (inactive) | GI50 [18]: 26.7 µM (inactive) and 17.6 µM (inactive) | GI50 [19]: 16 µM (inactive) and 16.1 µM (inactive) | GI50 [20]: 17.8 µM (inactive) and 25.4 µM (inactive) | GI50 [21]: 17.8 µM (inactive) and 25.7 µM (inactive) | GI50 [22]: 16.2 µM (inactive) and 19.1 µM (inactive) | GI50 [23]: 17.2 µM (inactive) and 18.8 µM (inactive) | GI50 [24]: 37.2 µM | GI50 [25]: 16.6 µM (inactive) and 18.8 µM (inactive) | GI50 [26]: 40.2 µM (inactive) and 57.3 µM (inactive) | GI50 [54]: 16 µM (inactive) and 18.7 µM (inactive) | GI50 [55]: 13.8 µM (inactive) and 26.7 µM (inactive) | GI50 [27]: 30.1 µM (inactive) | GI50 [29]: 23 µM (inactive) and 17.2 µM (inactive) | GI50 [56]: 17 µM (inactive) and 26.5 µM (inactive) | GI50 [30]: 18.9 µM (inactive) and 17.4 µM (inactive) | GI50 [31]: 30.6 µM (inactive) | GI50 [57]: 23.7 µM (inactive) and 17.4 µM (inactive) | GI50 [34]: 18.6 µM (inactive) and 18.8 µM (inactive) | GI50 [35]: 17.3 µM (inactive) and 22.9 µM (inactive) | GI50 [36]: 19.5 µM (inactive) and 16.3 µM (inactive) | GI50 [37]: 17.9 µM (inactive) and 18 µM (inactive) | GI50 [38]: 29.8 µM (inactive) and 36.5 µM (inactive) | GI50 [39]: 16.4 µM (inactive) and 26.4 µM (inactive) | GI50 [40]: 16.8 µM (inactive) and 16.5 µM (inactive) | GI50 [41]: 17.9 µM (inactive) and 17.7 µM (inactive) | GI50 [44]: 18.6 µM (inactive) and 19.7 µM (inactive) | GI50 [45]: 20.3 µM (inactive) | GI50 [46]: 26.6 µM (inactive) and 16.7 µM (inactive) | GI50 [47]: 17.9 µM (inactive) | GI50 [48]: 14.5 µM (inactive) and 22.6 µM (inactive) | GI50 [49]: 18.4 µM (inactive) and 16.5 µM (inactive) | GI50 [50]: 15.5 µM (inactive) and 18.1 µM (inactive) | GI50 [52]: 24.4 µM (inactive) and 27 µM (inactive) | GI50 [53]: 19.8 µM (inactive) and 16.7 µM (inactive)
